Experimental findings from patent US11357777B2, “Use of sGC stimulators for the treatment of nonalcoholic steatohepatitis (NASH)” (Cyclerion Therapeutics, Inc., priority 2016, dated 2022) are described below.

Data set [1] is described as follows: Distribution of sGC stimulators in tissues, rats (liver and plasma by LC-MS/MS). The class given is in vivo. Particulars: Wistar, rat, 2 h post fifth dose, male rats, read-out: total Liver:Plasma ratio. How it is done:
The purpose of this experiment was to determine compound concentrations in the plasma and tissues of animals dosed with sGC stimulators for 5 days Q.D.
In a first experiment, the sGC stimulator Compound B (described previously in Example 2) was dosed for 5 Days Q.D. to male Wister rats. Rats were divided into four study groups and dosed according to the below table:
The animals were dosed daily for five consecutive days according the table above. On each day of dosing, frozen aliquots of each dosing solution were thawed and the animals were weighed and dosed accordingly. On day 5, two hours post the fifth dose, blood was collected by orbital bleed. Blood samples were collected in EDTA tubes pre-loaded with 5 μL of 100 mM IBMX Plasma was be separated by centrifugation for 10 minutes at 4° C. and then stored at −80° C.
A Ketamine/Xylazine/pbs solution as a 5:1:4 ratio was administered I.P. at 1 ul per gram. Once the rat was fully anesthetized (as determined by checking its reflexes) and while the heart was still beating, a needle was inserted into the left ventricle. Approximately 20 mls of PBS/IBMX/heparin solution were then perfused. The right atrium was snipped, and perfusion continued for approximately 10 additional mls (30 mls total). At this point, the femoral artery was snipped and perfusion was continued until there was no longer blood (only clear fluid) collecting in the abdominal cavity. Several tissues, including liver, were isolated and weighed followed by snap freezing.
A second separate and similar experiment was carried out with Compound C. The structure of Compound C is depicted below. The preparation and characterization of this compound was described in patent application publication WO2014144100, published 18 Sep. 2014.
For this second experiment, rats were divided into four study groups and dosed according to the below table:
Samples were analyzed using liquid chromatography (LC) with tandem mass spectrometric detection (MS/MS) using positive electrospray ionization. The standard curve range was from 0.1 to 400 ng/mL. […]
In order to prepare the tissues for measurement, the naïve livers and the livers isolated after treatment were removed from the −80° C. freezer and placed on liquid nitrogen. The liver weight was recorded and then the tissue placed in a Geno grinding vial containing two 7/16″ steel beads. […] Approximately 200 mg of tissue from each sample was weighed and recorded. […] The samples were analyzed by LC-MS/MS.
Total liver and plasma concentrations were measured and liver concentrations were corrected for total liver weight. Liver: Plasma ratios were determined by dividing liver compound concentration by the plasma compound concentration. […]

Data set [2] concerns TNFα, IL-6 and IL-10 cytokine levels. Description: LPS model of acute inflammation in mice. The class given is in vivo. Particulars: 10 mg/kg oral gavage; LPS IV 1 h later; blood 2 h after LPS. As to the method: Acute murine models of inflammation have previously been described (see for example, Engelberts I et. al., Lymphokine Cytokine Res. 10(1-2):127-31 (1991) and Durez P et al., J Exp Med. 177:551-5 (1993)). In these models, mice or rats are administered the compound of interest followed by an injection of LPS (LPS stands for lipopolysaccharide, 100 ng IV administration) one hour later. LP S is a component of bacterial cell walls and elicits a rapid and strong systemic inflammatory response. Two hours after LPS injection, blood is collected, plasma and serum are isolated and cytokine levels are measured. The concentrations of TNFα and IL-6 in blood increase after stimulation with bacterial lipopolysaccharide (LP S). Measurement of cytokine production is carried out with either ELISA or cytokine bead assay (CBA).
The sGC stimulator Compound B was assessed in such an animal model using C57BL/6 mice. The structure of Compound B is depicted below:
The ability of Compound B to modulate cytokine release in vivo was assessed. Compound B was administered by oral gavage (formulated in methylcellulose as the carrier) at 1 and 10 mg/kg doses and the levels of the pro-inflammatory cytokines TNFα and IL-6 were measured, as well as the anti-inflammatory cytokine IL-10. Vehicle (V) and dexamethasone (dex, 5 mg/kg) were used as negative and positive controls, respectively, and 10 mice were used per group.

Data set [3] in a line: Single ascending dose Phase I study in healthy volunteers. The class given is in vivo, human. Particulars: oral capsule, top-line clinical data. From the text:
In a randomized, double-blind, placebo-controlled, single ascending dose Phase I study enrolling 46 healthy volunteers, participants were randomized 3:1 to receive a single dose of Compound B or placebo administered via an oral capsule.

Read-outs that look alike come from different tables or passages of the source.

Turning to `OC(CNc1nc(-c2cc(-c3ccon3)n(Cc3ccccc3F)n2)ncc1F)(C(F)(F)F)C(F)(F)F` [Compound B], the Kp in data set [1] (1 mg/kg PO Q.D. 5 days) amounted to 19. For the same compound, in data set [1] (10 mg/kg PO Q.D. 5 days), the Kp worked out at 20. For the same compound, in data set [2], the “levels of IL-6” value is given as “significantly reduced”, the “levels of IL-10” value is listed as “increasing” and the “levels of TNFα” value is “significantly reduced”. For the same compound, in data set [3], the distribution to tissues result is on record as “evidence of extensive distribution to tissues”.
